From patent US20110124574A1, “RESTORATION OF ESTROGEN RECEPTOR-(ALPHA) ACTIVITY” (priority 2008, published 2011)
Where no end group is shown, it is not given here. The star is where a group is joined. For = O=C*

B1: recombinant Wnt-5a: recombinant Wnt-5a protein (R&D Systems) (protein, UniProt P41221 62-380, looked up)
Protein Wnt-5a: IIGAQPLCSQLAGLSQGQKKLCHLYQDHMQYIGEGAKTGIKECQYQFRHRRWNCSTVDNTSVFGRVMQIGSRETAFTYAVSAAGVVNAMSRACREGELSTCGCSRAARPKDLPRDWLWGGCGDNIDYGYRFAKEFVDARERERIHAKGSYESARILMNLHNNEAGRRTVYNLADVACKCHGVSGSCSLKTCWLQLADFRKVGDALKEKYDSAAAMRLNSRGKLVQVNSRFNSPTTQDLVYIDPSPDYCVRNESTGSLGTQGRLCNKTSEGMDGCELMCCGRGYDQFKTVQTERCHCKFHWCCYVKCKKCTEIVDQFVCK

What was measured:
[1] = test system: ERα; assay: ERα protein expression by Western blot in stimulated 4T1 cells; assay type: cell-based, mouse; conditions: stimulation for 24 and 48 hours
Protocol: Breast cancer cells were grown in 6 well plates, and stimulated with recombinant Wnt-5a protein (rW5a), the Wnt-5a derived Foxy-5 peptide (F5), recombinant Wnt-3a protein (rW3a), or a formylated random hexapeptide (Rdm) for 24 or 48 h. Following treatment cells were lysed and subjected to SDS-PAGE, transferred to nitrocellulose membranes and blotted for ERα expression. A: MDA-MB-231 cells stimulated with recombinant Wnt-5a, Foxy-5, Wnt-3a, Rdm. B: MDA-MB-468 cells stimulated with recombinant Wnt-5a or Foxy-5. C: 4T1 cells stimulated with recombinant Wnt-5a or Foxy-5. Positive controls (Pos) were included in order to confirm the correct band size for ERα. Two different positive controls were used: T47D cell lysates known to express ERα and MDA-MB-231 cells transiently transfected with a full length ERα plasmid, resulting in extremely high ERα expression (top row, right panel, third row, right panel). […]
(§1) Cells were lysed in Triton lysis buffer (50 mM Tris (pH7.5), 1% Triton x-100, 140 mM NaCl, 0.5 mM EDTA, 0.5 MgCl2, 10 mM NaF) with the addition of fresh leupeptin (1 μg/ml), Pefabloc (2 mM), aprotinin (20 μg/ml) and Na3VO4 (4 mM). […] Scanning and densitometry was performed using a Bio-Rad (Hercules Calif.) GS-800 densitometer with Quantity One software. […]

[2] = test system: murine ERα; assay: In vivo ERα RT-PCR in 4T1 primary breast tumors of Balb/C mice; design: species or system mouse; conditions: Balb/C mice with 4T1 cells in mammary fat pads, 20 μg every fourth day for 25 days
Protocol: 2.5×10^4 4T1 breast cancer cells were inoculated into the mammary fat pads of 8-week old Balb/C mice. The animals were subsequently treated with either PBS alone, the Rdm control peptide (20 μg) or Foxy-5 (20 μg), every 4th day, for 25 days. RNA was extracted from primary breast tumors from 4 animals in each group, and subjected to RT-PCR for murine ERα. Shown are primary tumor samples from two animals of each treatment group.
2.5×10^4 4T1 breast cancer cells were inoculated into the mammary fat pads of 8 week old Balb/C mice, that were subsequently treated with either PBS alone, the Rdm control peptide (20 μg), or Foxy-5 (20 μg) every 4th day, for 25 days as described in a previous publication from the inventors (9). RNA was extracted from flash frozen primary breast tumors from 4 animals in each group, and subjected to RT-PCR for murine ERα.

[3] = test system: ERα; assay: ERα mRNA by RT-PCR in stimulated MDA-MB-468 cells; assay type: cell-based, human; conditions: time points 6, 12, 18 and 24 hours
Protocol: Breast cancer cells were grown in 6 well plates and stimulated with recombinant Wnt-5a protein (rW5a) or the Wnt-5a derived Foxy-5 peptide (F5), for 6, 12, 18 or 24 h. RNA was extracted at the end time point, cDNA synthesized and subjected to RT-PCR for ERα and the housekeeping gene, β-actin. A: MDA-MB-231 breast cancer cells, B: MDA-MB-468 breast cancer cells. The positive control (Pos) is RNA extracted from T47D cells which express ERα. The negative control represents a water control.
Stimulation of cells was performed with recombinant Wnt-5a (0.6 μg/ml) and recombinant Wnt-3a (0.1 μg/ml and in a control experiment, 0.6 μg/ml) (R&D Systems Abington, UK) for times as indicated. The Wnt-5a derived formylated hexapeptide, Foxy-5 (formyl-MDGCEL) (SEQ. ID. NO. 1) designed in the laboratory of the inventors, and a formylated random hexapeptide (formyl-MSADVG) (SEQ: ID: NO: 16) were either synthesized by Pepscan Presto (Lelystad, The Netherlands) or Inbiolabs (Tallinn, Estonia). The peptides were purified by RP-HPLC and mass spectrometry, and the >95% pure peptides were synthesized three times. […]
RNA extraction was performed in a designated clean RNA area with the addition of 500 μl TRIzol to each sample. […] The RNA concentration was measured using a Nanodrop Spectrophotometer ND-1000 (Bio-Rad (Hercules Calif.)). […]

[4] = test system: ERα; assay: ERα protein expression by Western blot in stimulated MDA-MB-231 cells; assay type: cell-based, human; conditions: stimulation 24 and 48 hours, rWnt-5a 0.6 μg/ml, rWnt-3a 0.1 μg/ml, peptides 100 μM
Protocol: Breast cancer cells were grown in 6 well plates, and stimulated with recombinant Wnt-5a protein (rW5a), the Wnt-5a derived Foxy-5 peptide (F5), recombinant Wnt-3a protein (rW3a), or a formylated random hexapeptide (Rdm) for 24 or 48 h. Following treatment cells were lysed and subjected to SDS-PAGE, transferred to nitrocellulose membranes and blotted for ERα expression. A: MDA-MB-231 cells stimulated with recombinant Wnt-5a, Foxy-5, Wnt-3a, Rdm. B: MDA-MB-468 cells stimulated with recombinant Wnt-5a or Foxy-5. C: 4T1 cells stimulated with recombinant Wnt-5a or Foxy-5. Positive controls (Pos) were included in order to confirm the correct band size for ERα. Two different positive controls were used: T47D cell lysates known to express ERα and MDA-MB-231 cells transiently transfected with a full length ERα plasmid, resulting in extremely high ERα expression (top row, right panel, third row, right panel).
Stimulation of cells was performed with recombinant Wnt-5a (0.6 μg/ml) and recombinant Wnt-3a (0.1 μg/ml and in a control experiment, 0.6 μg/ml) (R&D Systems Abington, UK) for times as indicated. The Wnt-5a derived formylated hexapeptide, Foxy-5 (formyl-MDGCEL) (SEQ. ID. NO. 1) designed in the laboratory of the inventors, and a formylated random hexapeptide (formyl-MSADVG) (SEQ: ID: NO: 16) were either synthesized by Pepscan Presto (Lelystad, The Netherlands) or Inbiolabs (Tallinn, Estonia). The peptides were purified by RP-HPLC and mass spectrometry, and the >95% pure peptides were synthesized three times. Cells were treated with Foxy-5 or random peptide at a concentration of 100 μM for times as indicated. All other chemicals if not otherwise stated were purchased from Sigma Chemicals (St. Louis, Mo.).
as §1

Molecule	ERα levels [1]	ERα expression in primary tumors [2]	stimulation time after which ERα mRNA was detected [3]	levels of ERα protein [4]
formyl-MDGCEL (For-MDGCEL; listed as Homo sapiens) [Foxy-5]	upregulated	strong ERα expression	6 h	
B1	upregulated		12 h	increase
